Literature values in US20240366580A1, “NOVEL PHARMACEUTICAL COMPOSITIONS COMPRISING DABIGATRAN ETEXILATE OR SALT THEREOF” (Zim Laboratories Limited, priority 2021, published 2024).
Structures can show the parent of a compound that is named as a salt.

Key:
[1] = high permeability, low solubility
[2] = oral administration

In the case of `CCCCCCOC(=O)NC(=N)c1ccc(NCc2nc3cc(C(=O)N(CCC(=O)OCC)c4ccccn4)ccc3n2C)cc1` [Dabigatran etexilate mesylate, β-Alanine, N-[[2-[[[4-[[[(hexyloxy)carbonyl]amino]iminomethyl]phenyl]amino]methyl]-1-methyl-1H-benzimidazol-5-yl]carbonyl]-N-2-pyridinyl-,ethyl ester, methanesulfonate], the solubility in ethanol (ethanol) is listed as “slightly soluble”, the solubility in isopropanol (isopropanol) is listed as “sparingly soluble” and the solubility in methanol (methanol) is listed as “freely soluble”. The BCS class [1] was “Class II” and the absolute bioavailability [2] was 3-7%.
